Measured values reported in US20080242716A1, “Ion Channel Modulators” (priority 2004, published 2008).

System: calcium channel (e.g., L-type, N-type, etc.) currents
Test: HEK assay, whole-cell voltage clamp in transiently transfected HEK-293T/17 cells
Type: cell-based
Settings: whole-cell patch clamp, steady-state concentration-response
Description: HEK-293T/17 cells are transiently transfected in a similar manner as described in FuGENE 6 Package Insert Version 7, April 2002, Roche Applied Science, Indianapolis, Ind. The cells are plated at 2.5×10^5 cells in 2 mL in a 6-well plate in incubator for one night and achieve a 30˜40% confluence. In a small sterile tube, add sufficient serum-free medium as diluent for FuGENE Transfection Reagent (Roche Applied Science, Indianapolis, Ind.), to a total volume of 100 μL. Add 3 μL of FuGENE 6 Reagent directly into this medium. The mixture is tapped gently to mix. 2 μg of DNA solution (0.8-2.0 μg/μL) is added to the prediluted FuGENE 6 Reagent from above. The DNA/Fugene 6 mixture is gently pipeted to mix the contents and incubated for about 15 minutes at room temperature. The complex mixture is then added to the HEK-293T/17 cells, distributing it around the well, and swirled to ensure even dispersal. The cells are returned to the incubator for 24 hrs. The transfected cells are then replated at density 2.5×10^5 in a 35 mm dish with 5 glass coverslips and grow in low serum(1%) media for 24 hrs. Coverslips with isolated cells are then transferred into chamber and calcium channel (e.g., L-type, N-type, etc.) current or other currents for counter screening are recorded from the transiently transfected HBEK-293T/17 cells. […]

## Fc1ccc(Cc2nc(Cc3nc4ccccc4[nH]3)cn2-c2ccc(Cl)cc2)cc1 [Compound 2, 2-[1-(4-Chloro-phenyl)-2-(4-fluoro-benzyl)-1H-imidazol-4-ylmethyl]-1H-benzoimidazole]
  IC50: 252 nM
